Source: US20230141603A1, “BENZODIAZEPINE DERIVATIVES AS GABA A GAMMA1 PAM” (Hoffmann-La Roche Inc., priority 2021, published 2023)

Target: T1, h-GABAA α1β3γ2 (Homo sapiens, UniProt P14867+P18507)
T1 construct: expressed in transfected cells; host or cells: HEK293F cells, membranes
Experiment: Radioligand binding assay, [3H]Flumazenil competition, HEK293F membranes
Conditions: for γ2/γ1 Selectivity Ratio: Ki α1β3γ2 (nM)/Ki α2β2γ1 (nM); for LogSel: Log[Ki α1β3γ2 (nM)/Ki α2β2γ1 (nM)]
Procedure: The affinity of compounds at GABAA γ2 subunit-containing receptors was measured by competition for [^3H]Flumazenil (81.1 Ci/mmol; Roche) binding to HEK293F cells expressing human (transiently transfected) receptors of composition α1β3γ2.
Harvested pellets from HEK293F cells expressing the different GABAA γ2 receptor subtypes were resuspended in Mannitol Buffer pH 7.2-7.4 and processed as described above for the cells expressing the GABAA γ1 subunit-containing receptors.
Assays were incubated to equilibrium for 1 hour at 4° C. and harvested onto GF/C uni-filters (Packard) by filtration using a Packard harvester and washing with ice-cold wash buffer (50 mM Tris; pH 7.5). After drying, filter-retained radioactivity was detected by liquid scintillation counting. Ki values were calculated using Excel-Fit (Microsoft) and are the means of two determinations.

Structure (SMILES) | Ki [nM] | γ2/γ1 Selectivity Ratio (Table 1) | LogSel (Table 1) | γ2/γ1 Selectivity Ratio (Table 3) | LogSel (Table 3)
Cc1nnc2n1-c1ccc(Br)c(Cl)c1C(c1c(F)cccc1F)=NC2 [Example 1, 8-bromo-7-chloro-6-(2,6-difluorophenyl)-1-methyl-4H-[1,2,4]triazolo[4,3-a][1,4]benzodiazepine] | 146 | 18.3 | 1.26 | 18.3 | 1.3
Fc1ccccc1C1=NCc2nnc(C3CC3)n2-c2ccc(Br)c(Cl)c21 [Example 2, 8-bromo-7-chloro-1-cyclopropyl-6-(2-fluorophenyl)-4H-[1,2,4]triazolo[4,3-a][1,4]benzodiazepine] | 486 | 10.1 | 1.01 |  | 
Fc1ccccc1C1=NCc2nnc(-c3cccnn3)n2-c2ccc(Br)c(Cl)c21 [Example 3, 8-bromo-7-chloro-6-(2-fluorophenyl)-1-pyridazin-3-yl-4H-[1,2,4]triazolo[4,3-a][1,4]benzodiazepine] | 453 | 51.2 | 1.71 |  | 
Cc1nnc2n1-c1ccc(Cl)c(Cl)c1C(c1ccccc1F)=NC2 [Example 4, 7,8-dichloro-6-(2-fluorophenyl)-1-methyl-4H-[1,2,4]triazolo[4,3-a][1,4]benzodiazepine] | 795 | 12.1 | 1.08 |  | 
Cc1nnc2n1-c1ccc(Cl)c(Cl)c1C(c1c(F)cccc1F)=NC2 [Example 5, 7,8-dichloro-6-(2,6-difluorophenyl)-1-methyl-4H-[1,2,4]triazolo[4,3-a][1,4]benzodiazepine] | 137 | 20.8 | 1.32 |  | 
Cc1nnc2n1-c1ccc(C3CC3)c(Cl)c1C(c1c(F)cccc1F)=NC2 [Example 6, 7-chloro-8-cyclopropyl-6-(2,6-difluorophenyl)-1-methyl-4H-[1,2,4]triazolo[4,3-a][1,4]benzodiazepine] | 965 | 10.3 | 1.01 |  | 
Fc1cccc(F)c1C1=NCc2nncn2-c2ccc(Br)c(Cl)c21 [Example 7, 8-bromo-7-chloro-6-(2,6-difluorophenyl)-4H-[1,2,4]triazolo[4,3-a][1,4]benzodiazepine] | 205 | 24.2 | 1.38 |  | 
Fc1ccccc1C1=NCc2nncn2-c2ccc(Br)c(Cl)c21 [Example 8, 8-bromo-7-chloro-6-(2-fluorophenyl)-4H-[1,2,4]triazolo[4,3-a][1,4]benzodiazepine] | 576 | 12.1 | 1.08 |  | 
O=c1[nH]nc2n1-c1ccc(Cl)c(Cl)c1C(c1c(F)cccc1F)=NC2 [Example 9, 7,8-dichloro-6-(2,6-difluorophenyl)-2,4-dihydro-[1,2,4]triazolo[4,3-a][1,4]benzodiazepin-1-one] | 396 | 49.7 | 1.70 |  | 
Fc1ccccc1C1=NCc2nnc(-c3cccnn3)n2-c2ccc(Cl)c(Cl)c21 [Example 10, 7,8-dichloro-6-(2-fluorophenyl)-1-pyridazin-3-yl-4H-[1,2,4]triazolo[4,3-a][1,4]benzodiazepine] | 645 | 67.7 | 1.83 |  | 
Fc1cccc(F)c1C1=NCc2nnc(C3CCOCC3)n2-c2ccc(Cl)c(Cl)c21 [Example 11, 7,8-dichloro-6-(2,6-difluorophenyl)-1-tetrahydropyran-4-yl-4H-[1,2,4]triazolo[4,3-a][1,4]benzodiazepine] | 690 | 14.1 | 1.15 |  | 
Fc1cccc(F)c1C1=NCc2nnc(-c3ccncn3)n2-c2ccc(Cl)c(Cl)c21 [Example 12, 7,8-dichloro-6-(2,6-difluorophenyl)-1-pyrimidin-4-yl-4H-[1,2,4]triazolo[4,3-a][1,4]benzodiazepine] | 490 | 47.3 | 1.67 |  | 
O=c1[nH]nc2n1-c1ccc(Br)c(Cl)c1C(c1c(F)cccc1F)=NC2 [Example 13, 8-bromo-7-chloro-6-(2,6-difluorophenyl)-2,4-dihydro-[1,2,4]triazolo[4,3-a][1,4]benzodiazepin-1-one] | 331 | 53.5 | 1.73 |  | 
Fc1cccc(F)c1C1=NCc2nnc(-c3cccnn3)n2-c2ccc(Cl)c(Cl)c21 [Example 14, 7,8-dichloro-6-(2,6-difluorophenyl)-1-pyridazin-3-yl-4H-[1,2,4]triazolo[4,3-a][1,4]benzodiazepine] | 299 | 86.6 | 1.94 | 86.6 | 1.9
Fc1cccc(F)c1C1=NCc2nncn2-c2ccc(Cl)c(Cl)c21 [Example 15, 7,8-dichloro-6-(2,6-difluorophenyl)-4H-[1,2,4]triazolo[4,3-a][1,4]benzodiazepine] | 249 | 28.7 | 1.46 |  | 
Cc1ccc2c(c1Cl)C(c1c(F)cccc1F)=NCc1n[nH]c(=O)n1-2 [Example 16, 7-chloro-6-(2,6-difluorophenyl)-8-methyl-2,4-dihydro-[1,2,4]triazolo[4,3-a][1,4]benzodiazepin-1-one] | 666 | 25.1 | 1.40 |  | 
Cc1ccc2c(c1Cl)C(c1c(F)cccc1F)=NCc1nncn1-2 [Example 17, 7-chloro-6-(2,6-difluorophenyl)-8-methyl-4H-[1,2,4]triazolo[4,3-a][1,4]benzodiazepine] | 493 | 24.9 | 1.40 |  | 
Fc1ccccc1C1=NCc2nnc(-c3ccncn3)n2-c2ccc(Cl)c(Cl)c21 [Example 18, 7,8-dichloro-6-(2-fluorophenyl)-1-pyrimidin-4-yl-4H-[1,2,4]triazolo[4,3-a][1,4]benzodiazepine] | 865 | 40.1 | 1.60 |  | 
COCCc1nnc2n1-c1ccc(Cl)c(Cl)c1C(c1c(F)cccc1F)=NC2 [Example 19, 7,8-dichloro-6-(2,6-difluorophenyl)-1-(2-methoxyethyl)-4H-[1,2,4]triazolo[4,3-a][1,4]benzodiazepine] | 829 | 31.9 | 1.50 |  | 
Cc1ccc2c(c1Cl)C(c1c(F)cccc1F)=NCc1nnc(C)n1-2 [Example 20, 7-chloro-6-(2,6-difluorophenyl)-1,8-dimethyl-4H-[1,2,4]triazolo[4,3-a][1,4]benzodiazepine] | 289 | 12.2 | 1.09 |  | 
CC(F)(F)c1ccc2c(c1Cl)C(c1c(F)cccc1F)=NCc1nncn1-2 [Example 21, 7-chloro-8-(1,1-difluoroethyl)-6-(2,6-difluorophenyl)-4H-[1,2,4]triazolo[4,3-a][1,4]benzodiazepine] | 1790 | 34.5 | 1.54 |  | 
Cc1nnc2n1-c1ccc(C(C)(F)F)c(Cl)c1C(c1c(F)cccc1F)=NC2 [Example 22, 7-chloro-8-(1,1-difluoroethyl)-6-(2,6-difluorophenyl)-1-methyl-4H-[1,2,4]triazolo[4,3-a][1,4]benzodiazepine] | 2790 | 74.6 | 1.87 |  | 
Fc1cccc(F)c1C1=NCc2nncn2-c2ccc(C(F)F)c(Cl)c21 [Example 23, 7-chloro-8-(difluoromethyl)-6-(2,6-difluorophenyl)-4H-[1,2,4]triazolo[4,3-a][1,4]benzodiazepine] | 1200 | 22.0 | 1.34 |  | 
Cc1nnc2n1-c1ccc(Br)c(Cl)c1C(c1ncccc1F)=NC2 [Example 24, 8-bromo-7-chloro-6-(3-fluoro-2-pyridyl)-1-methyl-4H-[1,2,4]triazolo[4,3-a][1,4]benzodiazepine] | 608 | 25.0 | 1.40 |  | 
Cc1nnc2n1-c1ccc(C(F)F)c(Cl)c1C(c1c(F)cccc1F)=NC2 [Example 25, 7-chloro-8-(difluoromethyl)-6-(2,6-difluorophenyl)-1-methyl-4H-[1,2,4]triazolo[4,3-a][1,4]benzodiazepine] | 1190 | 24.2 | 1.38 |  | 
O=c1[nH]nc2n1-c1ccc(Br)c(Cl)c1C(c1ccccc1F)=NC2 [Example 26, 8-bromo-7-chloro-6-(2-fluorophenyl)-2,4-dihydro-[1,2,4]triazolo[4,3-a][1,4]benzodiazepin-1-one] | 698 | 22.1 | 1.34 |  | 
Fc1ccccc1C1=NCc2nnc(-c3cccnn3)n2-c2ccc(C(F)(F)F)c(Cl)c21 [Example 27, 7-chloro-6-(2-fluorophenyl)-1-pyridazin-3-yl-8-(trifluoromethyl)-4H-[1,2,4]triazolo[4,3-a][1,4]benzodiazepine] | 4800 | 56.7 | 1.75 |  | 
Cn1cc(-c2nnc3n2-c2ccc(Cl)c(Cl)c2C(c2c(F)cccc2F)=NC3)cn1 [Example 28, 7,8-dichloro-6-(2,6-difluorophenyl)-1-(1-methylpyrazol-4-yl)-4H-[1,2,4]triazolo[4,3-a][1,4]benzodiazepine] | 293 | 31.1 | 1.49 |  | 
